Test results reported in US12030879B2, “Sulfonyl acetamides as NLRP3 inhibitors” (Inflazome Limited, priority 2018, dated 2024).

target: T1, NLRP3 (Homo sapiens, UniProt Q96P20); experiment: THP-1 cells pyroptosis assay; format: cell-based; conditions: LPS 1 μg/ml, compound 3 hrs, nigericin 5 μM 1 hr, resazurin readout
T1 construct: Seed THP-1 cells (25,000 cells/well) containing 1.0 μg/ml LPS in 40 μl of RPMI medium; host or cells: THP-1 cells
Experimental: THP-1 cells (ATCC #TIB-202) were grown in RPMI containing L-glutamine (Gibco #11835) supplemented with 1 mM sodium pyruvate (Sigma #S8636) and penicillin (100 units/ml)/streptomycin (0.1 mg/ml) (Sigma #P4333) in 10% Fetal Bovine Serum (FBS) (Sigma #F0804). The cells were routinely passaged and grown to confluency (10^6 cells/ml). On the day of the experiment, THP-1 cells were harvested and resuspended into RPMI medium (without FBS). The cells were then counted and viability (>90%) checked by Trypan blue (Sigma #T8154). Appropriate dilutions were made to give a concentration of 625,000 cells/ml. To this diluted cell solution was added LPS (Sigma #L4524) to give a 1 μg/ml Final Assay Concentration (FAC). 40 μl of the final preparation was aliquoted into each well of a 96-well plate. The plate thus prepared was used for compound screening.
The following method step-by-step assay was followed for compound screening. • 1. Seed THP-1 cells (25,000 cells/well) containing 1.0 μg/ml LPS in 40 μl of RPMI medium (without FBS) in 96-well, black walled, clear bottom cell culture plates coated with poly-D-lysine (VWR #734-0317) • 2. Add 5 μl compound (8 points half-log dilution, with 10 μM top dose) or vehicle (DMSO 0.1% FAC) to the appropriate wells • 3. Incubate for 3 hrs at 37° C., 5% CO2 • 4. Add 5 μl nigericin (Sigma #N7143) (FAC 5 μM) to all wells • 5. Incubate for 1 hr at 37° C., 5% CO2 • 6. At the end of the incubation period, spin plates at 300×g for 3 mins and remove supernatant • 7. Then add 50 μl of resazurin (Sigma #R7017)(FAC 100 μM resazurin in RPMI medium without FBS) and incubate plates for a further 1-2 hrs at 37° C. and 5% CO2 • 8. Plates were read in an Envision reader at Ex 560 nm and Em 590 nm • 9. IC50 data is fitted to a non-linear regression equation (log inhibitor vs response-variable slope 4-parameters) 96-well Plate Map

T1 sequence (Q96P20 whole entry): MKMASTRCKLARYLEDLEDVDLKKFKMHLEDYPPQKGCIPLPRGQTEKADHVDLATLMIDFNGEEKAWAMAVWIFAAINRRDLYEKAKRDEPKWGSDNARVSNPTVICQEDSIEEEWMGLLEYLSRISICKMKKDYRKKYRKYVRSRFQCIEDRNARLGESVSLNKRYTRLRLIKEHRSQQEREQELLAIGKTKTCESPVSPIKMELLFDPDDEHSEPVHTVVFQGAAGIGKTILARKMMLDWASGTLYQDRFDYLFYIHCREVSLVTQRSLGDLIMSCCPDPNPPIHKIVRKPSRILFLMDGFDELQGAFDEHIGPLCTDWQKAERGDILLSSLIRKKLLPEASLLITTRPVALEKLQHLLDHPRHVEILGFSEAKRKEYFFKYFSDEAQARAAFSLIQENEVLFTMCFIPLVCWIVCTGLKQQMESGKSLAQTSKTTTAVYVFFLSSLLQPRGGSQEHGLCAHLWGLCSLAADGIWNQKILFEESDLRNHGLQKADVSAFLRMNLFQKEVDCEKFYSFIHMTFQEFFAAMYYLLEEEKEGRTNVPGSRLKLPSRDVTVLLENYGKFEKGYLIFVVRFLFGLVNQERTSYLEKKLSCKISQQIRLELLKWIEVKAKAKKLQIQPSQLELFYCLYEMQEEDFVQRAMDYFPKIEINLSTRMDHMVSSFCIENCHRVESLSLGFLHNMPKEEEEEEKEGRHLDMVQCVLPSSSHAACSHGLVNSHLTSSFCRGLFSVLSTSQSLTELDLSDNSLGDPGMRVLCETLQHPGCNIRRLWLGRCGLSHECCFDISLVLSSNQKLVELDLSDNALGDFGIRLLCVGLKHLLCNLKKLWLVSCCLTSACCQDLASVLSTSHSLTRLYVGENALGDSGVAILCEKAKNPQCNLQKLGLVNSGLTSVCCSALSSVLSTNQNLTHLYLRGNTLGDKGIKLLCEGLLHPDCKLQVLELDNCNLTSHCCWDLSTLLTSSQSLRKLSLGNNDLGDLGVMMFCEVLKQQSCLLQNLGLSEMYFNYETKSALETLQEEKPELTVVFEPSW

Row | SMILES | IC50 [µM]
1 | COc1cc(-c2cc(F)cc(C(C)(C)F)c2CC(=O)NS(=O)(=O)c2ccc(C(C)(C)O)cc2C)ccn1 [Example 86, 2-(4-Fluoro-2-(2-fluoropropan-2-yl)-6-(2-methoxypyridin-4-yl)phenyl)-N-((4-(2-hydroxypropan-2-yl)-2-methylphenyl)sulfonyl)acetamide] | ≤ 5
2 | COc1cc(-c2cc(F)cc(C(C)(C)F)c2CC(=O)NS(=O)(=O)c2cc(C(C)(C)O)cs2)ccn1 [Example 87, 2-(4-Fluoro-2-(2-fluoropropan-2-yl)-6-(2-methoxypyridin-4-yl)phenyl)-N-((4-(2-hydroxypropan-2-yl)thiophen-2-yl)sulfonyl)acetamide] | ≤ 0.5
3 | COc1cc(-c2cc(F)cc(C(C)C)c2CC(=O)NS(=O)(=O)c2ccc(C(C)(C)NC(C)=O)c(F)c2)ccn1 [Example 88, N-((4-(2-Acetamidopropan-2-yl)-3-fluorophenyl)sulfonyl)-2-(4-fluoro-2-isopropyl-6-(2-methoxypyridin-4-yl)phenyl)acetamide] | ≤ 5
4 | COc1cc(-c2cc(F)cc(C(C)C)c2CC(=O)NS(=O)(=O)c2ccc(C(C)(C)NC(=O)OC(C)(C)C)c(F)c2)ccn1 [Example 90, tert-Butyl (2-(2-fluoro-4-(N-(2-(4-fluoro-2-isopropyl-6-(2-methoxypyridin-4-yl)phenyl)acetyl)sulfamoyl)phenyl)propan-2-yl)carbamate] | ≤ 0.5
5 | COc1cc(-c2cc(F)cc(C(C)C)c2CC(=O)NS(=O)(=O)c2cnc3c(c2)c(C)nn3C)ccn1 [Example 94, N-((1,3-Dimethyl-1H-pyrazolo[3,4-b]pyridin-5-yl)sulfonyl)-2-(4-fluoro-2-isopropyl-6-(2-methoxypyridin-4-yl)phenyl)acetamide] | ≤ 1
6 | COc1cc(-c2cc(F)cc(C(C)C)c2CC(=O)NS(=O)(=O)c2ccc(C(=O)N(C)C)c(Cl)c2)ccn1 [Example 96, 2-Chloro-4-(N-(2-(4-fluoro-2-isopropyl-6-(2-methoxypyridin-4-yl)phenyl)acetyl)sulfamoyl)-N,N-dimethylbenzamide] | ≤ 10
7 | COc1ccncc1-c1cc(F)cc(C(C)C)c1CC(=O)NS(=O)(=O)c1cc(C(C)(C)O)cs1 [Example 99, 2-(4-Fluoro-2-isopropyl-6-(4-methoxypyridin-3-yl)phenyl)-N-((4-(2-hydroxypropan-2-yl)thiophen-2-yl)sulfonyl)acetamide] | ≤ 0.5
8 | COc1cc(-c2cc(F)cc(C(C)C)c2CC(=O)NS(=O)(=O)c2ccc(O)nc2C)ccn1 [Example 102, 2-(4-Fluoro-2-isopropyl-6-(2-methoxypyridin-4-yl)phenyl)-N-((6-hydroxy-2-methylpyridin-3-yl)sulfonyl)acetamide] | ≤ 10
9 | COc1cc(-c2cc(F)cc(C(C)C)c2C(F)C(=O)NS(=O)(=O)c2cc(C(C)(C)O)co2)ccn1 (stereo not drawn) [Example 103, 2-Fluoro-2-(4-fluoro-2-isopropyl-6-(2-methoxypyridin-4-yl)phenyl)-N-((4-(2-hydroxypropan-2-yl)furan-2-yl)sulfonyl)acetamide] | ≤ 10
10 | COc1cc(-c2ccc3c(c2CC(=O)NS(=O)(=O)c2ncc(C(C)(C)O)s2)CCC3)ccn1 [Example 105, N-((5-(2-Hydroxypropan-2-yl)thiazol-2-yl)sulfonyl)-2-(5-(2-methoxypyridin-4-yl)-2,3-dihydro-1H-inden-4-yl)acetamide] | ≤ 10
11 | COc1cc(-c2ccc3c(c2CC(=O)NS(=O)(=O)c2cnc(C(C)(C)O)s2)CCC3)ccn1 [Example 107, N-((2-(2-Hydroxypropan-2-yl)thiazol-5-yl)sulfonyl)-2-(5-(2-methoxypyridin-4-yl)-2,3-dihydro-1H-inden-4-yl)acetamide] | ≤ 5
12 | COc1cc(-c2cc(F)cc(C(C)C)c2CC(=O)NS(=O)(=O)c2ccccc2)ccn1 [Example 111, 2-(4-Fluoro-2-isopropyl-6-(2-methoxypyridin-4-yl)phenyl)-N-(phenylsulfonyl)acetamide] | ≤ 5
13 | COc1cc(-c2cc(F)cc(C(C)C)c2CC(=O)NS(=O)(=O)c2ccc(C)cc2)ccn1 [Example 112, 2-(4-Fluoro-2-isopropyl-6-(2-methoxypyridin-4-yl)phenyl)-N-tosylacetamide] | ≤ 5
14 | COc1cc(-c2cc(F)cc(C(C)C)c2CC(=O)NS(=O)(=O)CC2(C#N)CCCCC2)ccn1 [Example 114] | ≤ 1
15 | COc1cc(-c2cc(F)cc(C(C)C)c2CC(=O)NS(=O)(=O)c2cc3ccccc3o2)ccn1 [Example 116] | ≤ 1
16 | CCc1cccc(S(=O)(=O)NC(=O)Cc2c(-c3ccnc(OC)c3)cc(F)cc2C(C)C)c1 [Example 117] | ≤ 0.5

More lines, now with the values ahead:

Row | IC50 [µM] | SMILES
17 | ≤ 1 | COc1cc(-c2cc(F)cc(C(C)C)c2CC(=O)NS(=O)(=O)c2cccc(C(C)(C)O)c2)ccn1 [Example 89, 2-(4-Fluoro-2-isopropyl-6-(2-methoxypyridin-4-yl)phenyl)-N-((3-(2-hydroxypropan-2-yl)phenyl)sulfonyl)acetamide]
18 | ≤ 5 | COc1cc(-c2cc(F)cc(C(C)C)c2CC(=O)NS(=O)(=O)c2ccc(C(C)(C)N(C)C)c(F)c2)ccn1 [Example 91, N-((4-(2-(Dimethylamino)propan-2-yl)-3-fluorophenyl)sulfonyl)-2-(4-fluoro-2-isopropyl-6-(2-methoxypyridin-4-yl)phenyl)acetamide]
19 | ≤ 5 | COC(=O)c1cc(S(=O)(=O)NC(=O)Cc2c(-c3ccnc(OC)c3)cc(F)cc2C(C)C)ccc1F [Example 92, Methyl 2-fluoro-5-(N-(2-(4-fluoro-2-isopropyl-6-(2-methoxypyridin-4-yl)phenyl)acetyl)sulfamoyl)benzoate]
20 | ≤ 1 | COc1cc(-c2cc(F)cc(C(C)C)c2CC(=O)NS(=O)(=O)c2ccc(Cl)cc2)ccn1 [Example 93, N-((4-Chlorophenyl)sulfonyl)-2-(4-fluoro-2-isopropyl-6-(2-methoxypyridin-4-yl)phenyl)acetamide]
21 | ≤ 10 | COc1cc(-c2cc(F)cc(C(C)C)c2CC(=O)NS(=O)(=O)c2ccc(NC(C)=O)cc2)ccn1 [Example 95, N-((4-Acetamidophenyl)sulfonyl)-2-(4-fluoro-2-isopropyl-6-(2-methoxypyridin-4-yl)phenyl)acetamide]
22 | ≤ 5 | COc1ccc(-c2cc(F)cc(C(C)C)c2CC(=O)NS(=O)(=O)c2ccc(C(C)(C)O)cc2C)cn1 [Example 97, 2-(4-Fluoro-2-isopropyl-6-(6-methoxypyridin-3-yl)phenyl)-N-((4-(2-hydroxypropan-2-yl)-2-methylphenyl)sulfonyl)acetamide]
23 | ≤ 0.5 | COc1cc(-c2cc(F)cc(C(C)C)c2CC(=O)NS(=O)(=O)c2ccc(C(C)(C)O)c(Cl)c2)ccn1 [Example 98, N-((3-Chloro-4-(2-hydroxypropan-2-yl)phenyl)sulfonyl)-2-(4-fluoro-2-isopropyl-6-(2-methoxypyridin-4-yl)phenyl)acetamide]
24 | ≤ 0.5 | Cc1cnccc1-c1cc(F)cc(C(C)C)c1CC(=O)NS(=O)(=O)c1cc(C(C)(C)O)cs1 [Example 100, 2-(4-Fluoro-2-isopropyl-6-(3-methylpyridin-4-yl)phenyl)-N-((4-(2-hydroxypropan-2-yl)thiophen-2-yl)sulfonyl)acetamide]
25 | ≤ 0.5 | COc1cc(-c2cc(F)cc(C(C)C)c2CC(=O)NS(=O)(=O)c2ccc(Cl)c(C)c2)ccn1 [Example 101, N-((4-Chloro-3-methylphenyl)sulfonyl)-2-(4-fluoro-2-isopropyl-6-(2-methoxypyridin-4-yl)phenyl)acetamide]
26 | ≤ 5 | COc1cc(-c2cc(F)cc(C(C)C)c2C(F)C(=O)NS(=O)(=O)c2cc(C(C)(C)O)cs2)ccn1 (stereo not drawn) [Example 104, 2-Fluoro-2-(4-fluoro-2-isopropyl-6-(2-methoxypyridin-4-yl)phenyl)-N-((4-(2-hydroxypropan-2-yl)thiophen-2-yl)sulfonyl)acetamide]
27 | ≤ 5 | COc1cc(-c2cc(F)cc(C(C)C)c2CC(=O)NS(=O)(=O)c2ncc(C(C)(C)O)s2)ccn1 [Example 106, 2-(4-Fluoro-2-isopropyl-6-(2-methoxypyridin-4-yl)phenyl)-N-((5-(2-hydroxypropan-2-yl)thiazol-2-yl)sulfonyl)acetamide]
28 | ≤ 5 | COc1cc(-c2cc(F)cc(C(C)C)c2CC(=O)NS(=O)(=O)c2cnc(C(C)(C)O)s2)ccn1 [Example 108, 2-(4-Fluoro-2-isopropyl-6-(2-methoxypyridin-4-yl)phenyl)-N-((2-(2-hydroxypropan-2-yl)thiazol-5-yl)sulfonyl)acetamide]
29 | ≤ 1 | COc1cc(-c2cc(F)cc(C(C)C)c2CC(=O)NS(=O)(=O)c2c(F)cc(C)cc2F)ccn1 [Example 113]
30 | ≤ 1 | COc1cc(-c2cc(F)cc(C(C)C)c2CC(=O)NS(=O)(=O)c2cccc3ccoc23)ccn1 [Example 115]
